Data as given in US20230364070A1, “PYRROLO[3,2-C]PYRIDIN-4-ONE DERIVATIVES USEFUL IN THE TREATMENT OF CANCER” (Scorpion Therapeutics, Inc., priority 2020, published 2023).

Tests used:
Assay type in all cases: cell-based
[1] = biological target: T1, pEGFR in CUTO14 cells (Homo sapiens, UniProt P00533, DUP767-769); test: Inhibitor activity on EGFR phosphorylation (pEGFR AlphaLISA, 2 h), CUTO14 cells
T1 construct: endogenous in cells; host or cells: CUTO14 cells
Experimental: CUTO14 cells were obtained from Dr. Robert C. Doebele at the University of Colorado.
Shake 350 rpm for 1 hr in the dark • 3.4 Prepare donor mix under low light conditions prior to use. Dispense 5 μL of donor mix to all the wells. Mix well on the shaker, seal and wrap in aluminum foil and incubate 1.5 hrs at room temperature in the dark • 3.5 Transfer 18.5 μL mixture to OptiPlate 384, and read using an Envision.

[2] = biological target: T2, Ba/F3 cells with EGFR WT (Homo sapiens, UniProt P00533); test: EGFR activity: Ba/F3 cell viability (CellTiter-Glo, 72 h), EGFR WT; conditions: read-out: BaF3 WT IC50
T2 construct: expressed in transfected cells; host or cells: Ba/F3 (murine pro-B cells), retroviral transduction, puromycin selection, maintained with EGF
T2 sequence (P00533 25-1210): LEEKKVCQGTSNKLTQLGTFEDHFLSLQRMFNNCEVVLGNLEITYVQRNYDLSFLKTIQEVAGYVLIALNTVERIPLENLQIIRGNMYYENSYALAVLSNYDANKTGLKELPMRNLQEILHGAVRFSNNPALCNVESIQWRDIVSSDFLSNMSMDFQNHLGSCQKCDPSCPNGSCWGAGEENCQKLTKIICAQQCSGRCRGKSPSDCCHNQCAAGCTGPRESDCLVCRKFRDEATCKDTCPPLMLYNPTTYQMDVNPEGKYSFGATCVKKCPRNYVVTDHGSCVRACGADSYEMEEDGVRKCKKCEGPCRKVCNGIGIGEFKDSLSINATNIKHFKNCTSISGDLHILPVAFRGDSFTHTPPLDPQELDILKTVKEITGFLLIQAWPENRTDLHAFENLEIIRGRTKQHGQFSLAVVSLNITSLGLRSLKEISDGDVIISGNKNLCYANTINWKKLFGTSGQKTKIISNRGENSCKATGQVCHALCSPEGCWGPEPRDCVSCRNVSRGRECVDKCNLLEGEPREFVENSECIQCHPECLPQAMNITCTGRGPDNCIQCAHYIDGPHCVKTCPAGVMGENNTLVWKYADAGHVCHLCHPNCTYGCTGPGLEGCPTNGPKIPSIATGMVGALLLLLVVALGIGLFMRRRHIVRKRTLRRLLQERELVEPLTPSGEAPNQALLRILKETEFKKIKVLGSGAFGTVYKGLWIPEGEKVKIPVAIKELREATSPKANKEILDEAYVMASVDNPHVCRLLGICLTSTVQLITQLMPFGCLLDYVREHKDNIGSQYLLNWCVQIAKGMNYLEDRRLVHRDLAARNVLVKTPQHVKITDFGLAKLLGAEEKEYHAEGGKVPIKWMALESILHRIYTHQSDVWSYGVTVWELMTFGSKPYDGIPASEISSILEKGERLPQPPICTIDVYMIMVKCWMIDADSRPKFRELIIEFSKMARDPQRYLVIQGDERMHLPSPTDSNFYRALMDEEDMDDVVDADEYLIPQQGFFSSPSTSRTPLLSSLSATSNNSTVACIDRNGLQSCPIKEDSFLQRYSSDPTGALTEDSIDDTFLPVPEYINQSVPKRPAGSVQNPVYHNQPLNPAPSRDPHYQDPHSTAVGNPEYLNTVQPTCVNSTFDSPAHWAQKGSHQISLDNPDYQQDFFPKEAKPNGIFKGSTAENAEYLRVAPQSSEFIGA

[3] = biological target: T3, Ba/F3 cells with EGFR exon 20 ASV Ins V769_D770 (Homo sapiens, UniProt P00533, INS769ASV); test: EGFR activity: Ba/F3 cell viability (CellTiter-Glo, 72 h), EGFR exon 20 ASV insertion; conditions: EGFR exon 20 ASV Ins V769_D770, cell viability, read-out: BaF3 ASV IC50
T3 construct: expressed in transfected cells; host or cells: Ba/F3 (murine pro-B cells), retroviral transduction, puromycin selection, IL3-independent pool
T3 sequence (P00533 with tags, fused parts or gaps INS769ASV): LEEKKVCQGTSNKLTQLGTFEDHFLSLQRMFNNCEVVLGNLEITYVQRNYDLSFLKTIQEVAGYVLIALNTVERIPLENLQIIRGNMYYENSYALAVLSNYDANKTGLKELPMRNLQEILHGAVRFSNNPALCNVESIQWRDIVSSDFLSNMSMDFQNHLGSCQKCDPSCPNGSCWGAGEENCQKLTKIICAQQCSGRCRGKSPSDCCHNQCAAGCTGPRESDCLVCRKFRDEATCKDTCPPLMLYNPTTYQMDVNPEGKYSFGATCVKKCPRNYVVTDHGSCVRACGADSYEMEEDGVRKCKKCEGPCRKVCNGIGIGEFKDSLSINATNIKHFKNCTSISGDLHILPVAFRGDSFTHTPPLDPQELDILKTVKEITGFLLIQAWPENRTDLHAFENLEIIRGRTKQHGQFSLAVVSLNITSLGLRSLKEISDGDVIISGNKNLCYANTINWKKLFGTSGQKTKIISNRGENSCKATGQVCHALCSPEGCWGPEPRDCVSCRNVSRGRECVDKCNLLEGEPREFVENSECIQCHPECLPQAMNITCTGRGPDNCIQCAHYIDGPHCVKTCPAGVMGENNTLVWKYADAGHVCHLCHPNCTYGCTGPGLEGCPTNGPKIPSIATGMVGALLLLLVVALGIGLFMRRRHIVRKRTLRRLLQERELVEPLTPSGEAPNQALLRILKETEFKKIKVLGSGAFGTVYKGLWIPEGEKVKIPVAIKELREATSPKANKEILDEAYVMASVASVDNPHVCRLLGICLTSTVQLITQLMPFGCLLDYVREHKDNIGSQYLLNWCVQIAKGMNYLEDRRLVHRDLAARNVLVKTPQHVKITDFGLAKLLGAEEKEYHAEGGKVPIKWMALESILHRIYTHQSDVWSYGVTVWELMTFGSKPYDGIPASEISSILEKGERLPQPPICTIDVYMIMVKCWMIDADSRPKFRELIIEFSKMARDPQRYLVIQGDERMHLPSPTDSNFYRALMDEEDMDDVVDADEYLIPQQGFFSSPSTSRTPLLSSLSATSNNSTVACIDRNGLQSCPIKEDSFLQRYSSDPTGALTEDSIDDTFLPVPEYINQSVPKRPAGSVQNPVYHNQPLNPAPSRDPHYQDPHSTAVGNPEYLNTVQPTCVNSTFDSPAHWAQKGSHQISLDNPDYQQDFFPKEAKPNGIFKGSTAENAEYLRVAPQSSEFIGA

[4] = biological target: T4, Ba/F3 cells with EGFR exon 20 NPG Ins D770_N771 (Homo sapiens, UniProt P00533, INS770NPG); test: EGFR activity: Ba/F3 cell viability (CellTiter-Glo, 72 h), EGFR exon 20 NPG insertion; conditions: EGFR exon 20 NPG Ins D770_N771, cell viability, read-out: BaF3 NPG IC50
T4 construct: expressed in transfected cells; host or cells: Ba/F3 (murine pro-B cells), retroviral transduction, puromycin selection, IL3-independent pool
T4 sequence (P00533 with tags, fused parts or gaps INS770NPG): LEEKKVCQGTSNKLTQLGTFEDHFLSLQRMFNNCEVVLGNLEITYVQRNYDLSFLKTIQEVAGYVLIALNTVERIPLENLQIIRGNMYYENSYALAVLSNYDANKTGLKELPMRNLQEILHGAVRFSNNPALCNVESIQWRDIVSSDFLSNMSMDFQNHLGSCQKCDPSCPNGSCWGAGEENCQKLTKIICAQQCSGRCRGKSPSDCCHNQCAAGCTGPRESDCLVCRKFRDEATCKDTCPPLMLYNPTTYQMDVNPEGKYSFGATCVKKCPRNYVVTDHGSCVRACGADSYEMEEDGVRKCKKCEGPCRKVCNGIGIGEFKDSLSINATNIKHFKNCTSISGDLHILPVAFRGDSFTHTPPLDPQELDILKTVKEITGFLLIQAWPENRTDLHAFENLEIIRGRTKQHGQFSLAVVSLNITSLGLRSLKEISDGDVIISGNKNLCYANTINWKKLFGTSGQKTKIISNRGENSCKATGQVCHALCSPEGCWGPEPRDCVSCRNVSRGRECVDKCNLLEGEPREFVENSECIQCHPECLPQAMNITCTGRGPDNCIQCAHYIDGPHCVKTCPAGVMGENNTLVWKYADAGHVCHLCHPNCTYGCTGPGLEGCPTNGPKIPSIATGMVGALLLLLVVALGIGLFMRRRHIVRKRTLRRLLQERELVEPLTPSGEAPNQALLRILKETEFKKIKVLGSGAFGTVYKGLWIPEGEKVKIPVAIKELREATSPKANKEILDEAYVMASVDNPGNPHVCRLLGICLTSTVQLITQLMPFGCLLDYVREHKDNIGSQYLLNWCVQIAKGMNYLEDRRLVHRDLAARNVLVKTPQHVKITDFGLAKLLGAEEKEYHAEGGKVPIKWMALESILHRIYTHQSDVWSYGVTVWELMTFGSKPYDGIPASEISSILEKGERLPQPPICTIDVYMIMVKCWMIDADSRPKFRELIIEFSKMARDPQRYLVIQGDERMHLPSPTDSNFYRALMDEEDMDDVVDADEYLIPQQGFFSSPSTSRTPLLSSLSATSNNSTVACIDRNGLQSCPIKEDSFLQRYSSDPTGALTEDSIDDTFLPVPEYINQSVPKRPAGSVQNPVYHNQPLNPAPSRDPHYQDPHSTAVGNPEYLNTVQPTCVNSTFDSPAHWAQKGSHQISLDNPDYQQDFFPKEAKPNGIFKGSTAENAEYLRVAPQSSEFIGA

T1 sequence (P00533 with tags, fused parts or gaps DUP767-769): as the sequence (P00533 with tags, fused parts or gaps INS769ASV) above

IC50 [1] [nM] | SMILES | IC50 [2] [nM] | IC50 [3] [nM] | IC50 [4] [nM]
< 100 | C=CC(=O)N1[C@@H](COc2cnccc2-c2[nH]c3c(c2Nc2cccc(F)c2OC)C(=O)NCC3)C[C@H]1C (relative stereo) [compound 332] | – | – | –
< 100 | C=CC(=O)N1CC(C)(C)C1C#Cc1cnccc1-c1[nH]c2c(c1Nc1cccc(Cl)c1OC)C(=O)NCC2 (single isomer, unassigned) [compound 233] | – | – | –
< 100 | C=CC(=O)N1CC(C)(C)C1C#Cc1cnccc1-c1[nH]c2c(c1Nc1cccc(F)c1OC)C(=O)NCC2 (single isomer, unassigned) [compound 249] | – | – | –
< 100 | C=CC(=O)NC1(C#Cc2cnccc2-c2[nH]c3c(c2Nc2cccc(Cl)c2OC)C(=O)NCC3)CCOC1 (single isomer, unassigned) [compound 322] | – | – | –
< 100 | C=CC(=O)N1CCC1(C)COc1cnccc1-c1[nH]c2c(c1Nc1cccc(F)c1CC)C(=O)NCC2 (single isomer, unassigned) [compound 359] | – | – | –
< 100 | C=CC(=O)N1CCC1(C)COc1cnccc1-c1[nH]c2c(c1Nc1cccc(Cl)c1OC)C(=O)NCC2 (single isomer, unassigned) [compound 511] | – | – | –
< 100 | C=CC(=O)N1CC(C)(C)C1COc1cnccc1-c1[nH]c2c(c1Nc1cccc(Cl)c1OC)C(=O)NCC2 (single isomer, unassigned) [compound 513] | – | – | –
< 100 | C=CC(=O)NC1(C#Cc2cnccc2-c2[nH]c3c(c2Nc2cccc(F)c2OC)C(=O)NCC3)CC1 [compound 206, N-{1-[2-(4-{3-[(3-fluoro-2-methoxyphenyl)amino]-4-oxo-1H,5H,6H,7H-pyrrolo[3,2-c]pyridin-2-yl}pyridin-3-yl)ethynyl]cyclopropyl}prop-2-enamide] | – | – | –
< 100 | Cc1c(F)cccc1Nc1c(-c2ccncc2OC[C@@H]2CCCN2C(=O)/C=C/CN(C)C)[nH]c2c1C(=O)NCC2 [compound 217, 2-(3-{[(2S)-1-[(2E)-4-(dimethylamino)but-2-enoyl]pyrrolidin-2-yl]methoxy}pyridin-4-yl)-3-[(3-fluoro-2-methylphenyl)amino]-1H,5H,6H,7H-pyrrolo[3,2-c] pyridin-4-one] | – | – | –
< 100 | C=CC(=O)N1CC(C)(C)[C@H]1C#Cc1cnccc1-c1[nH]c2c(c1Nc1cccc(Cl)c1OC)C(=O)NCC2 [compound 232, 3-[(3-chloro-2-methoxyphenyl)amino]-2-(3-{2-[(2R)-3,3-dimethyl-1-(prop-2-enoyl)azetidin-2-yl]ethynyl}pyridin-4-yl)-1H,5H,6H,7H-pyrrolo[3,2-c]pyridin-4-one] | – | – | –
< 100 | C=CC(=O)N1CC(C)(C)C[C@@H]1C#Cc1cnccc1-c1[nH]c2c(c1Nc1cccc(F)c1OC)C(=O)NCC2 [compound 253, 2-(3-{2-[(2R)-4,4-dimethyl-1-(prop-2-enoyl)pyrrolidin-2-yl]ethynyl}pyridin-4-yl)-3-[(3-fluoro-2-methoxyphenyl)amino]-1H,5H,6H,7H-pyrrolo[3,2-c]pyridin-4-one] | – | – | –
< 100 | C=CC(=O)N(C)C(C)(C)C#Cc1cnccc1-c1[nH]c2c(c1Nc1cccc(F)c1OC)C(=O)NCC2 [compound 259, N-[4-(4-{3-[(3-fluoro-2-methoxyphenyl)amino]-4-oxo-1H,5H,6H,7H-pyrrolo[3,2-c]pyridin-2-yl}pyridin-3-yl)-2-methylbut-3-yn-2-yl]-N-methylprop-2-enamide] | – | – | –
< 100 | C=CC(=O)NC1(C#Cc2cnccc2-c2[nH]c3c(c2Nc2cccc(F)c2OC)C(=O)NCC3)COC1 [compound 263] | – | – | –
< 100 | C=CC(=O)N1[C@H]2CC[C@H](C2)[C@@H]1COc1cnccc1-c1[nH]c2c(c1Nc1cccc(Cl)c1OC)C(=O)NCC2 [compound 274, 3-[(3-chloro-2-methoxyphenyl)amino]-2-(3-{[(1S,3R,4R)-2-(prop-2-enoyl)-2-azabicyclo[2.2.1]heptan-3-yl]methoxy}pyridin-4-yl)-1H,5H,6H,7H-pyrrolo[3,2-c]pyridin-4-one] | – | – | –
< 100 | CC#CC(=O)N1CC[C@H]1COc1cnccc1-c1[nH]c2c(c1Nc1cccc(Cl)c1OC)C(=O)NCC2 [compound 288, 2-(3-{[(2S)-1-(but-2-ynoyl)azetidin-2-yl]methoxy}pyridin-4-yl)-3-[(3-chloro-2-methoxyphenyl)amino]-1H,5H,6H,7H-pyrrolo[3,2-c]pyridin-4-one] | – | – | –
– | C=CC(=O)NC1(C#Cc2cnccc2-c2[nH]c3c(c2Nc2cccc(Cl)c2OC)C(=O)NCC3)CN(C)C1 [compound 410] | > 1000 | 100 to 1000 | < 100
– | C=CC(=O)NC(C)(C)C#Cc1cnccc1-c1[nH]c2c(c1Nc1cc(F)cc(Cl)c1OC)C(=O)NCC2 [compound 428] | 100 to 1000 | < 100 | < 100
– | COc1c(Cl)cc(F)cc1Nc1c(-c2ccncc2C#C[C@@]2(C)CCCN2C(=O)C#CCN(C)C)[nH]c2c1C(=O)NCC2 [compound 432] | 100 to 1000 | < 100 | < 100
– | COc1c(Cl)cc(F)cc1Nc1c(-c2ccncc2C#CC23CC(CN2C(=O)/C=C/CN(C)C)C3)[nH]c2c1C(=O)NCC2 [compound 438] | 100 to 1000 | < 100 | < 100

IC50 [1] [nM] | SMILES | IC50 [2] [nM] | IC50 [3] [nM] | IC50 [4] [nM]
– | C=CC(=O)NC1(C#Cc2cnccc2-c2[nH]c3c(c2Nc2cccc(Cl)c2OC)C(=O)NCC3)CNC1 [compound 455] | > 1000 | > 1000 | > 1000
– | COc1c(F)cccc1Nc1c(-c2ccncc2C#C[C@@]2(C)COCCN2C(=O)/C=C/CN(C)C)[nH]c2c1C(=O)NCC2 [compound 459] | > 1000 | < 100 | < 100
– | C=CC(=O)N1CCOC[C@]1(C)C#Cc1cnccc1-c1[nH]c2c(c1Nc1cccc(F)c1OC)C(=O)NCC2 [compound 460] | 100 to 1000 | < 100 | < 100
– | C=CC(=O)N1CCOC[C@]1(C)C#Cc1cnccc1-c1[nH]c2c(c1Nc1cccc(Cl)c1OC)C(=O)NCC2 [compound 461] | 100 to 1000 | < 100 | < 100
– | COc1c(Cl)cccc1Nc1c(-c2ccncc2C#C[C@H]2CN(C)CCO2)[nH]c2c1C(=O)NCC2 [compound 495] | 100 to 1000 | < 100 | < 100
– | Cc1c(F)cccc1Nc1c(-c2ccncc2C#CC(C)(C)C)[nH]c2c1C(=O)NCC2 [compound 499] | > 1000 | < 100 | < 100
– | COc1c(Cl)cccc1Nc1c(-c2ccncc2C#CC2CCCC2)[nH]c2c1C(=O)NCC2 [compound 526] | 100 to 1000 | < 100 | < 100
– | C=C(CN(C)C)C(=O)NC(C)(C)C#Cc1cnccc1-c1[nH]c2c(c1Nc1cccc(Cl)c1OC)C(=O)NCC2 [compound 574] | < 100 | < 100 | < 100
– | C=C(CN(C)C)C(=O)NC(C)(C)C#Cc1cnccc1-c1[nH]c2c(c1Nc1cccc(F)c1OC)C(=O)NCC2 [compound 575] | < 100 | < 100 | < 100
– | C=CC(=O)N[C@H](C#Cc1cnccc1-c1[nH]c2c(c1Nc1cccc(Cl)c1OC)C(=O)NCC2)CC [compound 581] | 100 to 1000 | < 100 | < 100
– | C=CC(=O)N[C@@H](C#Cc1cnccc1-c1[nH]c2c(c1Nc1cccc(Cl)c1OC)C(=O)NCC2)CC [compound 582] | > 1000 | < 100 | < 100
– | COc1c(F)cccc1Nc1c(-c2ccncc2C#C[C@H]2CCN2C(=O)/C=C/CN(C)C)[nH]c2c1C(=O)NCC2 [compound 593] | 100 to 1000 | < 100 | < 100
– | COc1c(F)cccc1Nc1c(-c2ccncc2C#C[C@@H]2CCN2C(=O)/C=C/CN(C)C)[nH]c2c1C(=O)NCC2 [compound 594] | > 1000 | < 100 | < 100
– | COc1c(Cl)cccc1Nc1c(-c2ccncc2C#C[C@@]2(C)CCCN2C(=O)/C=C/CNC2COC2)[nH]c2c1C(=O)NCC2 [compound 595] | > 1000 | 100 to 1000 | < 100
– | COc1c(Cl)cccc1Nc1c(-c2ccncc2C#C[C@@]2(C)CCCN2C(=O)/C=C/CN2CC(F)(F)C2)[nH]c2c1C(=O)NCC2 [compound 603] | > 1000 | 100 to 1000 | 100 to 1000
– | CC#CC(=O)N1CC[C@@H]1COc1cnccc1-c1[nH]c2cc[nH]c(=O)c2c1Nc1cccc(Cl)c1OC [compound 630] | > 1000 | < 100 | < 100
– | COc1c(F)cccc1Nc1c(-c2ccncc2C#C[C@]2(C)COCCN2C(=O)/C=C/CN(C)C)[nH]c2c1C(=O)NCC2 [compound 631] | 100 to 1000 | < 100 | < 100
– | C=CC(=O)N1CCOC[C@@]1(C)C#Cc1cnccc1-c1[nH]c2c(c1Nc1cccc(F)c1OC)C(=O)NCC2 [compound 632] | 100 to 1000 | < 100 | < 100
– | C=CC(=O)N1CCOC[C@@]1(C)C#Cc1cnccc1-c1[nH]c2c(c1Nc1cccc(Cl)c1OC)C(=O)NCC2 [compound 634] | 100 to 1000 | < 100 | < 100
